The record followed here is patent publication US20030162759A1, “Aldosterone blocker therapy to prevent or treat inflammation-related disorders” (priority 2000, published 2003).

Common to all, as to type: in vivo, rat
The test system of assay [1] is osteopontin. Put plainly: Assay B aldosterone infusion model: serum (circulating) osteopontin at 28 days. The conditions noted are these: NaCl 1% drinking rats with aldosterone and eplerenone. The procedure:
Assay B: In vivo Aldosterone Infusion Model Male Sprague Dawley rats (n=39; BW=250 g) […] Uni-nephrectomy performed during implantation of mini-pumps 2. Aldosterone ([…], sc via aizet minipump) 2. […] Sacrifice after 4 weeks.

In assay [2] the test system is osteopontin. Description: Assay B aldosterone infusion model: osteopontin mRNA in heart by quantitative RT-PCR (Taqman). The procedure:
(§1) Assay B: In vivo Aldosterone Infusion Model Male Sprague Dawley rats (n=39; BW=250 g) […] Uni-nephrectomy performed during implantation of mini-pumps […] Aldosterone ([…], sc via aizet minipump) […] 1. […] Sacrifice after 4 weeks. Hearts were harvested and divided by half through a transverse section at the mid-ventricles: The upper half was stored into formalin. The bottom part was snap-frozen in liquid nitrogen for biochemical analysis. Determination of osteopontin and COX-2 was performed by quantitative RT-PCR (Taqman). Osteopontin was also identified in the heart by immunohistochemistry.
A general note: Real-time PCR tracks product formation cycle by cycle.

The subject of assay [3] is osteopontin, ED-1, CD-3, ICAM-1, VCAM-1. Description: Assay C: immunohistochemistry of myocardial tissue (osteopontin, ED-1, CD-3, ICAM-1, VCAM-1). To be noted: aldosterone+salt treated rats; eplerenone 100 mg/kg/day. As for the experimental part:
The procedure of Assay B was expanded upon in a further study. […] Myocardial tissue from animals in each treatment group was examined after 7, 14, or 30 days of treatment. […] Lesions were preceded by the expression and progressive upregulation of proinflammatory molecules.
Potassium chloride supplementation was added to the saline solution in order to prevent the potential hypokalemia associated with aldosterone excess.
At the time of the surgery, an Alzet 2002 osmotic minipump (Alza Corp., Palo Alto, Calif.) containing either vehicle (9% ethanol/87% propylene glycol/4% dH2O) or 1.0 mg/mL d-aldosterone (Sigma Chemical, St. Louis, Mo.) was inserted subcutaneously at the nape of the neck. Aldosterone was administered at a dose of 0.75 g/hour. […] Animals were sacrificed from each group (n=8-13) after 7, 14, or 30 days of treatment.
Five m sections were deparaffinized in xylene (two, 5-10 min incubations) and rehydrated by 3 min incubations in ethanol as follows: two incubations in 100% ethanol followed by two incubations in 95% alcohol and one incubation in 70% alcohol. Once hydrated, sections were rinsed in tap water for 1 min and distilled water for 1 min. Endogenous peroxide activity was blocked by placing slides in 3.0% H2O2 for 15 min followed by a 5 min rinse in distilled water. Slides were processed for antigen retrieval using citric acid, pH 6.0. […]

Assay [4] relates to angiotensin II infused, captopril treated stroke prone spontaneously hypertensive rats. Put plainly: Angiotensin II infused, captopril treated stroke prone spontaneously hypertensive rats: urinary protein excretion and renal injury (FIGS. 35-36).
In assay [5] the test system is angiotensin II infused rats. Description: Assay A angiotensin II infusion model: urinary Na+/K+ ratio (natriuresis index). To be noted: saline-drinking rats, eplerenone 100 mpk. The source says: 24-hours food and fluid intake and urine output measured every day Urine samples collected every day for determination of urinary electrolytes. Electrolyte excretion. The ratio between daily urinary Na^+ excretion and urinary K^+ excretion (U Na^+/K^+ ratio) was used as an index for natriuresis. Urinary Na^+/K^+ ratio was similar in all groups before the start of the treatments, and increased similarly in all animals upon initiation of the high salt diet.

The test system of a further assay is COX-2. Put plainly: Assay B aldosterone infusion model: COX-2 mRNA in heart by quantitative RT-PCR (Taqman). The procedure: as §1
The mark [6] stands for this setting: heart, quantitative RT-PCR, aldosterone/salt rats, 4 weeks, eplerenone 100 mpk p.o.

Take `COC(=O)[C@@H]1CC2=CC(=O)CC[C@]2(C)[C@@]23O[C@@H]2C[C@@]2(C)[C@@H](CC[C@@]24CCC(=O)O4)[C@H]13` [eplerenone, Pregn-4-ene-7,21-dicarboxylic acid, 9,11-epoxy-17-hydroxy-3-oxo-, γ-lactone, methyl ester, (7α, 11α, 17β) -]: the “Circulating (serum) osteopontin levels” value with osteopontin [1] is “marked decrease in circulating osteopontin levels”. Further, the “Osteopontin upregulation in myocardium” value with osteopontin [2] (aldosterone infused rats (FIG. 30)) is “prevention by eplerenone of osteopontin upregulation”. The “Osteopontin relative mRNA expression” value with osteopontin [2] (setting [6]) was found to be 2.5±0.6. In addition, the “Staining in myocardial tissue for marker proteins (immunohistochemistry)” value in assay [3] is listed as “markedly blunted the aldosterone+salt treatment induced staining”. The Urinary protein excretion entry in assay [4] (captopril treated SHRSP (FIG. 35)) was “inhibition of increased urinary protein excretion”. Moreover, the “Histopathological scores for renal injury” value in assay [4] (captopril treated SHRSP (FIG. 36)) is “reduction in histopathological scores for renal injury”. The “Urinary Na+/K+ ratio (diuretic or natriuretic effect)” value in assay [5] is reported as “did not produce a significant diuretic or natriuretic effect”. In the assay with COX-2 (aldosterone infused rats (FIG. 31)), the “COX-2 upregulation in myocardium” value is “prevention by eplerenone of COX-2 upregulation”. The “COX-2 relative mRNA expression” value in the assay on COX-2 (setting [6]) is 1.8±0.36.
